One test has as its system KB. In words: Growth inhibition of human KB cells after 72 hrs by SRB assay. Type of test: functional. (In general: The SRB assay estimates cell density from bound dye.)
Test [1] in a line: Growth inhibition of human KBVIN cells after 72 hrs by SRB assay. In kind it is functional.
The test system of another test is DU-145. In words: Growth inhibition of human DU145 cells after 72 hrs by SRB assay. In kind it is functional. As to conditions: DU-145, 72 h.
The subject of another test is A549. In words: Growth inhibition of human A549 cells after 72 hrs by SRB assay. Type of test: functional. As to conditions: A549, 72 h.
For test [2], the system named is PC-3. In words: Disruption of microtubule dynamics in human PC3 cells at 30 to 60 uM after 24 hrs by DAPI staining-based confocal microscopic analysis. Type of test: functional, cell-based.
Test [3] has as its system PC-3. In words: Induction of metaphase cell accumulation in human PC3 cells at 30 to 60 uM after 24 hrs by DAPI staining-based confocal microscopic analysis. In kind it is functional.

Active and inactive are the calls of the source. The rule behind the calls is not given here. Some results are limits rather than exact numbers.

For orientation: GI50 means the concentration at which growth is held to half of that of the control. Higher therefore signals lower sensitivity of the cells.

Take `C=C1CC[C@@H]2[C@]3(C)CO[C@@H](c4ccc(N(C)C)cc4)O[C@@H]3CC[C@@]2(C)[C@@H]1/C=C/C1=CCOC1=O`: the GI50 in the test on KB is > 30 µM; in test [1], > 30 µM; with DU-145, > 30 µM; with A549, 33 µM.
Take `C=C1CC[C@@H]2[C@](C)(COC(=O)C3CCN(C)CC3)[C@H](OC(=O)C3CCN(C)CC3)CC[C@@]2(C)[C@@H]1/C=C/C1=CCOC1=O`: the outcome in the test on PC-3 [2] was Active. Also, the concentration for 50% growth inhibition (GI50) with KB worked out at 2.55 µM; in test [1] it was 3 µM; in the test with DU-145, 2.27 µM; in the test with A549 it was 1.46 µM. In addition, the outcome with PC-3 [3] was inactive.
As for `C=C1CC[C@@H]2[C@](C)(COC(=O)c3cnccn3)[C@H](OC(=O)c3cnccn3)CC[C@@]2(C)[C@@H]1/C=C/C1=CCOC1=O`, the GI50 in the test with KB is 8.24 µM; in test [1], 9.19 µM; with DU-145 it was 8.63 µM; in the test with A549 it was 4.87 µM.
On the same counts, the results for `C=C1CC[C@@H]2[C@](C)(COC(=O)CCN(C)C)[C@H](OC(=O)CCN(C)C)CC[C@@]2(C)[C@@H]1/C=C/C1=CCOC1=O` are > 30 µM, 31.7 µM, 25.3 µM and 32 µM.
`C=C1CC[C@@H]2[C@](C)(COC(=O)CCCCC3CCSS3)[C@H](OC(=O)CCCCC3CCSS3)CC[C@@]2(C)[C@@H]1/C=C/C1=CCOC1=O` (stereo not given in full): the 50% growth inhibitory concentration (GI50) with KB was found to be 11.7 µM; in test [1], 12.9 µM; with DU-145, 11.8 µM; with A549 it was 10.2 µM.
The like results for `C=C1CC[C@@H]2[C@](C)(COC(=O)C3CCCN3C(=O)OC(C)(C)C)[C@H](O)CC[C@@]2(C)[C@@H]1/C=C/C1=CCOC1=O` (stereo not given in full) were, in that order, 20.1 µM, 17.9 µM, 18.8 µM and 18.8 µM.
The like results for `C=C1CC[C@@H]2[C@](C)(COC(=O)CN(C)C)[C@H](OC(=O)CN(C)C)CC[C@@]2(C)[C@@H]1/C=C/C1=CCOC1=O` were, in that order, > 30 µM, > 30 µM, > 30 µM and > 30 µM.
For `C=C1CC[C@@H]2[C@]3(C)CO[C@@H](c4ccco4)O[C@@H]3CC[C@@]2(C)[C@@H]1/C=C/C1=CCOC1=O`, the 50% growth inhibitory concentration (GI50) was determined as 36.4 µM in the test on KB, 32.7 µM in test [1], 32.9 µM in the test with DU-145 and 34 µM in the test on A549.
The like results for `C=C1CC[C@@H]2[C@](C)(COC(=O)CCN3CCOCC3)[C@H](O)CC[C@@]2(C)[C@@H]1/C=C/C1=CCOC1=O` were, in that order, > 30 µM, 30 µM, 30.3 µM and > 30 µM.
On the same counts, the results for `C=C1CC[C@@H]2[C@](C)(COC(=O)CCCCC3CCSS3)[C@H](O)CC[C@@]2(C)[C@@H]1/C=C/C1=CCOC1=O` (stereo not given in full) are > 30 µM, > 30 µM, > 30 µM and > 30 µM.
`C=C1CC[C@@H]2[C@](C)(COC(=O)C3CCCN3C(=O)OC(C)(C)C)[C@H](OC(=O)C3CCCN3C(=O)OC(C)(C)C)CC[C@@]2(C)[C@@H]1/C=C/C1=CCOC1=O` (stereo not given in full): the concentration for 50% growth inhibition (GI50) amounted to 12.5 µM in the test on KB, 11.1 µM in test [1], 11.1 µM in the test with DU-145 and 10.2 µM in the test on A549.
Turning to `C=C1CC[C@@H]2[C@](C)(CO)[C@H](O)CC[C@@]2(C)[C@@H]1C/C=C1/C(=O)OC[C@H]1O` [ANDROGRAPHOLIDE], the concentration for 50% growth inhibition (GI50) in the test with KB was 13.2 µM; in test [1], 13.8 µM; in the test with DU-145 it was 16 µM; with A549 it was 13.4 µM. Also, the result in the test on PC-3 [3] was Active.
As for `C=C1CC[C@@H]2[C@]3(C)CO[C@@H](c4ccc([N+](=O)[O-])cc4)O[C@@H]3CC[C@@]2(C)[C@@H]1/C=C/C1=CCOC1=O`, the GI50 with KB is > 30 µM; in test [1], > 30 µM; in the test on DU-145 it was > 30 µM; with A549, 30.8 µM.
In the case of `C=C1CC[C@@H]2[C@](C)(COC(=O)c3cccnc3)[C@H](OC(=O)c3cccnc3)CC[C@@]2(C)[C@@H]1/C=C/C1=CCOC1=O`, the GI50 (in the test with KB; in test [1]; in the test with DU-145; with A549) was > 30 µM throughout.
Regarding `C=C1CC[C@@H]2[C@]3(C)CO[C@@H](c4ccc(O)cc4)O[C@@H]3CC[C@@]2(C)[C@@H]1/C=C/C1=CCOC1=O`, the 50% growth inhibitory concentration (GI50) with KB is 23.7 µM; in test [1], 22.6 µM; in the test with DU-145, 19.1 µM; with A549, 22.8 µM.
Regarding `C=C1CC[C@@H]2[C@](C)(COC(=O)CCN3CCOCC3)[C@H](OC(=O)CCN3CCOCC3)CC[C@@]2(C)[C@@H]1/C=C/C1=CCOC1=O`, the concentration for 50% growth inhibition (GI50) (in the test with KB; in test [1]; with DU-145; in the test on A549) was > 30 µM each time.
In the case of `C=C1CC[C@@H]2[C@]3(C)CO[C@@H](c4ccc(OC)cc4)O[C@@H]3CC[C@@]2(C)[C@@H]1/C=C/C1=CCOC1=O`, the GI50 was 32.9 µM with KB, > 30 µM in test [1], 32.1 µM in the test on DU-145 and 26.9 µM with A549.
Turning to `C=C1CC[C@@H]2[C@]3(C)CO[C@@H](c4ccc(C(F)(F)F)cc4)O[C@@H]3CC[C@@]2(C)[C@@H]1/C=C/C1=CCOC1=O`, the GI50 in the test with KB was 23.4 µM; in test [1] it was 18.3 µM; with DU-145 it was 17.2 µM; with A549, 16.9 µM.
